The text below walks through data of patent US20190322676A1, “CERAMIDE GALACTOSYLTRANSFERASE INHIBITORS FOR THE TREATMENT OF DISEASE” (BioMarin Pharmaceutical Inc., priority 2016, published 2019).

Where a name gives a salt, the structure may show the parent alone.

The target in this assay is T1, human CGT (ceramide galactosyltransferase), CHO/CGT lysate (Homo sapiens, UniProt Q16880).
T1 construct: Full-length human CGT cDNA was cloned into the BamH1/Xho1 site of pcDNA3.1 (+); expressed in transfected cells; host or cells: Chinese hamster ovary (CHO) cells; lysate prepared with M-PER
T1 sequence (Q16880 21-541): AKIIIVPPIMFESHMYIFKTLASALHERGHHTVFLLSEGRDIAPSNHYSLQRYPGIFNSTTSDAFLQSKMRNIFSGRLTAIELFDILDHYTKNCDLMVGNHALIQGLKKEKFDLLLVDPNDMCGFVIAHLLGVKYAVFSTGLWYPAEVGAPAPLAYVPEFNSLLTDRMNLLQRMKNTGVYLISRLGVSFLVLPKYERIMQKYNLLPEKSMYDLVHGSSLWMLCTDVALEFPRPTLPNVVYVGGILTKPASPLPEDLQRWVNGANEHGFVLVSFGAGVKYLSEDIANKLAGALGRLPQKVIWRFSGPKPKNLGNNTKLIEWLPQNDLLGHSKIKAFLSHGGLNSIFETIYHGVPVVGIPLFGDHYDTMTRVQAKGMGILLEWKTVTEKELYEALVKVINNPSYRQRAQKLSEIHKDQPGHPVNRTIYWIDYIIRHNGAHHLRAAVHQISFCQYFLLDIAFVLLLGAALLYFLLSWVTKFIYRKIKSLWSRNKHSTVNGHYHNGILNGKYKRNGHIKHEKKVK
As to the kind of experiment: CGT enzyme assay, RapidFire/MS/MS readout (Table 1 ranges with one asterisk *). The assay is classed as biochemical. Particulars: RapidFire method (range with one asterisk *). The method in brief:
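Lysate (4 μg) of CHO cells transfected with full-length human CGT incubated 1 h at 37 °C with compound (0.001–50 μM) in pH 7.2 HEPES buffer with 10 μM C6-NBD-dihydro-ceramide, 17.5 μM UDP-galactose, Mg2+/Mn2+, CHAPS, BSA, 0.5% DMSO; ** set also contained 0.01% Tween 80. Product quantified by RapidFire/MS/MS, normalized to internal standard; IC50 from sigmoidal variable-slope fits.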
Take `NC1CC2CCC(C1)N2C(=O)[C@@H](NS(=O)(=O)c1ccc(OCC2CCCCC2)cc1)C(F)(F)c1ccc(-c2ccc(Cl)s2)cc1` (stereo partly drawn) [Compound 104-1, N-((2R)-3-(3-amino-8-azabicyclo[3.2.1]octan-8-yl)-1-(4-(5-chlorothiophen-2-yl)phenyl)-1,1-difluoro-3-oxopropan-2-yl)-4-(cyclohexylmethoxy) benzenesulfonamide]: the IC50 is 1 to 10 µM.
With `NC1CC2CCC(C1)N2C(=O)[C@H](NS(=O)(=O)c1ccc(OCC2CCCCC2)cc1)C(F)(F)c1ccc(-c2ccc(Cl)s2)cc1` (stereo partly drawn) [Compound 104-2, N-((2S)-3-(3-amino-8-azabicyclo[3.2.1]octan-8-yl)-1-(4-(5-chlorothiophen-2-yl)phenyl)-1,1-difluoro-3-oxopropan-2-yl)-4-(cyclohexylmethoxy)benzenesulfonamide] the figure was 10 to 30 µM; with `NC1CC2CCC(C1)N2C(=O)[C@@H](NS(=O)(=O)c1ccc(OCC2CCCCC2)cc1)C(F)(F)c1ccc(OC2CCCCC2)cc1` (stereo partly drawn) [Compound 105-1, N-((2R)-3-(3-amino-8-azabicyclo[3.2.1]octan-8-yl)-1-(4-(cyclohexyloxy)phenyl)-1,1-difluoro-3-oxopropan-2-yl)-4-(cyclohexylmethoxy) benzenesulfonamide], below 1 µM; with `NC1CC2CCC(C1)N2C(=O)[C@H](NS(=O)(=O)c1ccc(OCC2CCCCC2)cc1)C(F)(F)c1ccc(OC2CCCCC2)cc1` (stereo partly drawn) [Compound 105-2, N-((2S)-3-(3-amino-8-azabicyclo[3.2.1]octan-8-yl)-1-(4-(cyclohexyloxy)phenyl)-1,1-difluoro-3-oxopropan-2-yl)-4-(cyclohexylmethoxy)benzenesulfonamide], 10 to 30 µM.
The result for `CN([C@H](C(=O)N1C2CCC1CC(N)C2)C(F)(F)c1ccc(OCc2ccccc2)cc1)S(=O)(=O)c1ccc2cc(OC3CCCC3)ccc2c1` (stereo partly drawn) [Compound 106-1, N-((2R)-3-(3-amino-8-azabicyclo[3.2.1]octan-8-yl)-1-(4-(benzyloxy)phenyl)-1,1-difluoro-3-oxopropan-2-yl)-6-(cyclopentyloxy)-N-methylnaphthalene-2-sulfonamide] reads 1 to 10 µM; that for `CN([C@@H](C(=O)N1C2CCC1CC(N)C2)C(F)(F)c1ccc(OCc2ccccc2)cc1)S(=O)(=O)c1ccc2cc(OC3CCCC3)ccc2c1` (stereo partly drawn) [Compound 106-2, N-((2S)-3-(3-amino-8-azabicyclo[3.2.1]octan-8-yl)-1-(4-(benzyloxy)phenyl)-1,1-difluoro-3-oxopropan-2-yl)-6-(cyclopentyloxy)-N-methylnaphthalene-2-sulfonamide], 1 to 10 µM; that for `NC1CC2CCC(C1)N2C(=O)[C@@H](NS(=O)(=O)c1ccc2cc(OC3CCCC3)ccc2c1)C(F)(F)c1cccc(Oc2ccccc2)c1` (stereo partly drawn) [Compound 107-1, N-((2R)-3-(3-amino-8-azabicyclo[3.2.1]octan-8-yl)-1,1-difluoro-3-oxo-1-(3-phenoxyphenyl)propan-2-yl)-6-(cyclopentyloxy)naphthalene-2-sulfonamide], below 1 µM.
As for `NC1CC2CCC(C1)N2C(=O)[C@H](NS(=O)(=O)c1ccc2cc(OC3CCCC3)ccc2c1)C(F)(F)c1cccc(Oc2ccccc2)c1` (stereo partly drawn) [Compound 107-2, N-((2S)-3-(3-amino-8-azabicyclo[3.2.1]octan-8-yl)-1,1-difluoro-3-oxo-1-(3-phenoxyphenyl)propan-2-yl)-6-(cyclopentyloxy)naphthalene-2-sulfonamide], the IC50 lay in the range of 1 to 10 µM.
With `NC1CCN(C(=O)[C@@H](NS(=O)(=O)c2ccc3cc(OC4CCCC4)ccc3c2)C(F)(F)c2cccc(Oc3ccccc3)c2)CC1` [Compound 108-1, (R)—N-(3-(4-aminopiperidin-1-yl)-1,1-difluoro-3-oxo-1-(3-phenoxyphenyl)propan-2-yl)-6-(cyclopentyloxy)naphthalene-2-sulfonamide] the figure was below 1 µM; with `NC1CCN(C(=O)[C@H](NS(=O)(=O)c2ccc3cc(OC4CCCC4)ccc3c2)C(F)(F)c2cccc(Oc3ccccc3)c2)CC1` [Compound 108-2, (S)—N-(3-(4-aminopiperidin-1-yl)-1,1-difluoro-3-oxo-1-(3-phenoxyphenyl)propan-2-yl)-6-(cyclopentyloxy)naphthalene-2-sulfonamide], 1 to 10 µM.
With `NC1CCN(C(=O)[C@@H](NS(=O)(=O)c2ccc(OCC3CCCCC3)cc2)C(F)(F)c2cccc(Oc3ccccc3)c2)CC1` [Compound 109-1, (R)—N-(3-(4-aminopiperidin-1-yl)-1,1-difluoro-3-oxo-1-(3-phenoxyphenyl)propan-2-yl)-4-(cyclohexylmethoxy)benzenesulfonamide trifluoroacetate] the figure was 1 to 10 µM.
On to `NC1CCN(C(=O)[C@H](NS(=O)(=O)c2ccc(OCC3CCCCC3)cc2)C(F)(F)c2cccc(Oc3ccccc3)c2)CC1` [Compound 109-2, (S)—N-(3-(4-aminopiperidin-1-yl)-1,1-difluoro-3-oxo-1-(3-phenoxyphenyl)propan-2-yl)-4-(cyclohexylmethoxy) benzenesulfonamide trifluoroacetate], for which the half-inhibitory concentration (IC50) was 1 to 10 µM.
With `CN([C@H](C(=O)N1C2CCC1CC(N)C2)C(F)(F)c1ccc(O)cc1)S(=O)(=O)c1ccc2cc(OC3CCCC3)ccc2c1` (stereo partly drawn) [Compound 110-1, N-((2R)-3-(3-amino-8-azabicyclo[3.2.1]octan-8-yl)-1,1-difluoro-1-(4-hydroxyphenyl)-3-oxopropan-2-yl)-6-(cyclopentyloxy)-N-methylnaphthalene-2-sulfonamide trifluoroacetate] the figure was 1 to 10 µM.
With `CN([C@@H](C(=O)N1C2CCC1CC(N)C2)C(F)(F)c1ccc(O)cc1)S(=O)(=O)c1ccc2cc(OC3CCCC3)ccc2c1` (stereo partly drawn) [Compound 110-2, N-((2S)-3-(3-amino-8-azabicyclo[3.2.1]octan-8-yl)-1,1-difluoro-1-(4-hydroxyphenyl)-3-oxopropan-2-yl)-6-(cyclopentyloxy)-N-methylnaphthalene-2-sulfonamide trifluoroacetate] the figure was 30 to 100 µM.
With `CN([C@H](C(=O)N1C2CCC1CC(N)C2)C(F)(F)c1cccc(Oc2ccccc2)c1)S(=O)(=O)c1ccc2cc(OC3CCCC3)ccc2c1` (stereo partly drawn) [Compound 111-1, N-((2R)-3-(3-amino-8-azabicyclo[3.2.1]octan-8-yl)-1,1-difluoro-3-oxo-1-(3-phenoxyphenyl)propan-2-yl)-6-(cyclopentyloxy)-N-methylnaphthalene-2-sulfonamide trifluoroacetate] the figure was below 1 µM.
The molecule `CN([C@@H](C(=O)N1C2CCC1CC(N)C2)C(F)(F)c1cccc(Oc2ccccc2)c1)S(=O)(=O)c1ccc2cc(OC3CCCC3)ccc2c1` (stereo partly drawn) [Compound 111-2, N-((2S)-3-(3-amino-8-azabicyclo[3.2.1]octan-8-yl)-1,1-difluoro-3-oxo-1-(3-phenoxyphenyl)propan-2-yl)-6-(cyclopentyloxy)-N-methylnaphthalene-2-sulfonamide trifluoroacetate] registered a half-inhibitory concentration (IC50) of 10 to 30 µM.
`NC1CCN(C(=O)[C@@H](NS(=O)(=O)c2ccc3cc(OC4CCCC4)ccc3c2)C(F)(F)c2ccc(-c3ccc(Cl)s3)cc2)CC1` [Compound 112-1, (R)—N-(3-(4-aminopiperidin-1-yl)-1-(4-(5-chlorothiophen-2-yl)phenyl)-1,1-difluoro-3-oxopropan-2-yl)-6-(cyclopentyloxy)naphthalene-2-sulfonamide trifluoroacetate] gave a 50% inhibitory concentration (IC50) below 1 µM.
The result for `NC1CCN(C(=O)[C@H](NS(=O)(=O)c2ccc3cc(OC4CCCC4)ccc3c2)C(F)(F)c2ccc(-c3ccc(Cl)s3)cc2)CC1` [Compound 112-2, (S)—N-(3-(4-aminopiperidin-1-yl)-1-(4-(5-chlorothiophen-2-yl)phenyl)-1,1-difluoro-3-oxopropan-2-yl)-6-(cyclopentyloxy)naphthalene-2-sulfonamide trifluoroacetate] reads 1 to 10 µM; that for `NC1CC2CCC(C1)N2C(=O)[C@@H](NS(=O)(=O)c1ccc(OCC2CCCCC2)cc1)C(F)(F)c1cccc(Oc2ccccc2)c1` (stereo partly drawn) [Compound 113-1, N-((2R)-3-(3-amino-8-azabicyclo[3.2.1]octan-8-yl)-1,1-difluoro-3-oxo-1-(3-phenoxyphenyl)propan-2-yl)-4-(cyclohexylmethoxy)benzenesulfonamide trifluoroacetate], below 1 µM; that for `NC1CC2CCC(C1)N2C(=O)[C@H](NS(=O)(=O)c1ccc(OCC2CCCCC2)cc1)C(F)(F)c1cccc(Oc2ccccc2)c1` (stereo partly drawn) [Compound 113-2, N-((2S)-3-(3-amino-8-azabicyclo[3.2.1]octan-8-yl)-1,1-difluoro-3-oxo-1-(3-phenoxyphenyl)propan-2-yl)-4-(cyclohexylmethoxy) benzenesulfonamide trifluoroacetate], 1 to 10 µM.
`CCOc1ccc(C(F)(F)[C@@H](C(=O)N2C3CCC2CC(N)C3)N(C)S(=O)(=O)c2ccc3cc(OC4CCCC4)ccc3c2)cc1` (stereo partly drawn) [Compound 114-1, N-((2R)-3-(3-amino-8-azabicyclo[3.2.1]octan-8-yl)-1-(4-ethoxyphenyl)-1,1-difluoro-3-oxopropan-2-yl)-6-(cyclopentyloxy)-N-methylnaphthalene-2-sulfonamide] showed a concentration for half-maximal inhibition (IC50) of 1 to 10 µM.
